Experimental findings from publication PMC8624998, “Synthesis and Antiproliferative Evaluation of 3-Chloroazetidin-2-ones with Antimitotic Activity: Heterocyclic Bridged Analogues of Combretastatin A-4” (Pharmaceuticals, 2021) are described below.

The nature of data set [1]: HPLC stability study in phosphate buffers. It counts as physicochemical. The conditions noted are these: phosphate buffer. As to the method:
HPLC stability studies at three different pH systems were performed on a representative compound 16a to determine the stability at acidic pH 4, pH 7.4 and basic pH 9 (acid pH found in the stomach, basic found in the intestine and pH 7.4 in the plasma).
A stability study for compound 16a was performed by analytical HPLC using a Symmetry® column (C18, […], 4.6 × 150 mm), a Waters 2487 Dual Wavelength Absorbance detector, a Waters 1525 binary HPLC pump and a Waters 717 plus Autosampler (Waters Corporation, Milford, MA, USA). Samples were detected at λ 254 nm using acetonitrile (70%)/water (30%) as the mobile phase over 15 min and a flow rate of 1 mL/min. A stock solution of the compound was prepared using 10 mg of compound 16a in 10 mL of mobile phase (1 mg/mL). A calibration curve was prepared using a solution of 0.5, 0.25, 0.125, 0.0625, 0.03125, 0.015625 and 0.0078 mg/mL. (i) Stability of 16a in phosphate buffers: Phosphate buffers at pH values 4, 7.4 and 9 were prepared according to the British Pharmacopoeia 2020. A total of 300 µL of stock solution (1 mg/mL ACN) for 16a was added to a vial containing 9.7 mL of buffer, mixed and pre-heated to 37°C. A total of 1 mL of the solution was added to the HPLC glass vial and 10 µL was injected, followed by hourly injections for a 24-h period. Samples were withdrawn and analysed at time intervals of t = 0 min, 5 min, 30 min, 60 min and hourly for 24 h. The analysis was performed in triplicate. (ii) Thermal stability: 16a (1 mg) was placed in a vial (for the solution, 1 mL of stock solution was used) at 60 °C for 4 h on a heating block. The sample was then cooled, diluted with ACN and analysed using HPLC. (iii) Photostability study: A solution of compound 16a (1 mL of the stock solution) was placed in a vial and exposed to UV light for 4 h. The sample was directly analysed using HPLC. […] Once neutralised, the samples were analysed using HPLC. […] Once neutralised, the samples were analysed using HPLC. […] A sample from the vial was taken every hour over 4 h and analysed using HPLC.

In the next data set the test system is MCF-7 cells. Description: Cell viability assay (MTT/AlamarBlue), antiproliferative activity. The data set is classed as cell-based, human. The procedure, abridged:
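MCF-7 cells seeded, left 24 h at 37 °C, then exposed 72 h to compound (1 nM–200 μM, or 0.001–100 μM) in ethanol or DMSO vehicle (≤1% ethanol, 0.1% DMSO). Viability read by MTT (1 mg/mL final, 3 h) or AlamarBlue (10% v/v, 3–5 h), relative to untreated controls as 100%.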

In the next data set the test system is SW480 cells. Description: Cell viability assay, antiproliferative activity. The data set is classed as cell-based, human. The conditions noted are these: SW480, 10 μM. As to the method:
[…]. The corresponding values for 10e in these cell lines were 161 nM (HL-60), 55 nM (SW480) and 135 nM (HT-29). […] […]. SW480 colon cells expressed low levels of the UDP-glucuronosyltransferase (UGT) protein compared to expression levels in HT-29 cells. […] […].
The human breast carcinoma cell line MCF-7 was purchased from the European Collection of Animal Cell Cultures (ECACC). Triple negative breast cancer Hs578T cells and its invasive variant Hs578Ts(i)8 were a kind gift from Dr. Susan McDonnell, School of Chemical and Bioprocess Engineering, University College Dublin. U266 cells were a gift from Dr. Tony McElligott, School of Medicine, St James’s Hospital, Trinity College Dublin. HT-29 cells were purchased from the European Collection of Cell Cultures (originating from a human adenocarcinoma of the colon). The human breast carcinoma cell line MDA-MB-231 and the HL-60 cells derived from a patient with acute myeloid leukaemia were both obtained from ECACC (Salisbury, UK). The SW-480 cells were a kind gift from Dr. Brian Flood, School of Biochemistry and Immunology, Trinity College Dublin. HEK-293T (normal epithelial embryonic kidney cells) were cultured in Dulbecco’s Modified Eagle’s Medium (DMEM) with GlutaMAXTM-I in the absence of non-essential amino acids. Human breast cancer MCF-7 cells and multiple myeloma U266 cells were cultured in Minimum Essential Media (MEM) with GlutaMAX™-I, supplemented with 1% (v/v) non-essential amino acids, 10% 2(v/v) foetal bovine serum (FBS) and 1% (v/v) penicillin/streptomycin 5000 U/mL. MDA-MB-231 cells were maintained in DMEM supplemented with 10% (v/v) foetal bovine serum, 2 mM L-glutamine and 100 μg/mL penicillin/streptomycin (complete medium). Colon cancer HT-29 and SW-480 and triple negative breast cancer Hs578T and its invasive variant Hs578T8i were cultured in DMEM with GlutaMAX™-I, with the same supplement in the absence of non-essential amino acids. Leukaemia HL-60 cancer cells were cultured in Roswell Park Memorial Institute Media (RPMI-1640) with GlutaMAX™-I, supplemented with 10% FCS media, and 100 μg/mL penicillin/streptomycin as above. Cell numbers were monitored using a haemocytometer. Cell culture flasks were incubated in a humidified incubator (5% CO2/95% air) at 37 °C. All cell lines were sub-cultured three times per week with trypsinisation using TrypLE Express (1X) required for adherent cell lines.
. All stock solutions and serial dilution in ethanol/DMSO were stored at -20 °C. All cells were seeded at a density of 2.5 × 10^4 cells/mL in a 96-well plate (200 μL per well). The cells were incubated in a […] atmosphere at 37 °C for 24 h, then treated with test compound (2 μL of stock solutions per 200-microlitre well) in ethanol to obtain a concentration range of 1 nM–200 μM for the study. The plates were then re-incubated for a further 72 h. Control wells contained an equivalent volume of the vehicle ethanol or DMSO (1% v/v). MTT cell viability assay: The culture medium was removed, and the cells were washed with phosphate buffered saline (PBS, […]). MTT (dissolved in PBS, […]) was added to obtain a final concentration of MTT (1 mg/mL). Cells were incubated at 37 °C for 3 h in the dark. Solubilisation was commenced by the addition of DMSO ([…]) and the cells were maintained at 20 °C in the dark for 20 min before reading the absorbance to ensure complete colour diffusion. The absorbance value of control cells (no added compound) was set to 100% cell viability and absorbance versus cell density per well was determined to assess cell viability using Graph-Pad Prism software. AlamarBlue cell viability assay: Cells were seeded in 96-well plates (e.g., MCF-7, 5 × 10^3 cells/well) and (HT-29 cells, 1 × 10^3 cells/well) and (HL-60 cells, 1 × 10^4 cells/well) with a total volume per well of 200 µL. After 24 h, cells were treated in triplicate with serial dilutions of CA-4 or β-lactam analogues (0.001–100 μM), medium alone or vehicle (1% ethanol (v/v)). […]

For data set [2], the system named is microtubule network of MCF-7 cells. Briefly: Immunofluorescence (confocal) of microtubule network. The data set is classed as cell-based, human. The note with it: MCF-7, 16 h; 10n 0.05, 0.1, 0.5 μM; CA-4 10 nM; paclitaxel 1 μM. As to the method:
Subsequently, the effect of the representative compound 10n on the organisation of microtubule cytoskeleton of MCF-7 cells was also determined by confocal microscopy using an anti-tubulin antibody (Figure 8). […] The MCF-7 cell nuclei (stained blue) were also clearly observed (Figure 8A). […] The treatment of MCF-7 breast cancer cells with CA-4 tubulin-targeting agents has been reported to result in the formation of multiple micronuclei and mitotic catastrophes.
Confocal microscopy was used to study the effects on MCF-7 cytoskeleton following treatment with compound 10n following the protocols previously reported. For each experiment, all images were collected on the same day using identical parameters. MCF-7 cells were seeded (1 × 10^5 cells/mL) on eight chamber glass slides. Cells were either untreated or treated with vehicle (1% ethanol (v/v)), CA-4 (10 nM), Paclitaxel (1 μM) and β-lactam compound 10n at 50 nM, 100 nM and 500 nM concentrations for 16 h. The cells were then gently washed in PBS and then fixed for 30 min with 100% ice-cold MeOH. Cells were washed three times in PBS for 10 min and then permeabilised in 0.5% Triton X-100. The cells were subsequently washed in PBS containing 0.1% Tween (PBST), and then blocked in bovine serum albumin (5%) diluted in PBST. Cells were then incubated with a mouse monoclonal anti-α-tubulin−FITC antibody (clone DM1A) (1:200) for 2 h at 20 °C. Following washes in PBST, cells were incubated with Alexa Fluor 488 dye (1:500) for 1 h at 20 °C. Following further washes in PBST, the cells were mounted in Ultra Cruz Mounting Media, which contained 4,6-diamino-2-phenolindol dihydrochloride (DAPI). The images were photographed using Leica SP8 confocal microscopy with the Leica application suite X software program. Experiments were performed on three independent occasions.
Figure 8 Compound 10n depolymerises the microtubule network of MCF-7 breast cancer cells. Cells were treated with (A) vehicle control ([…]), (B) CA-4 (10 nM), (C) paclitaxel (1 μM) and compound 10n, (D) (50 nM), (E) (100 nM) and (F) (500 nM) for 16 h. […]

Take `COc1ccc(C2C(Br)C(=O)N2c2cc(OC)c(OC)c(OC)c2)cc1` (stereo not shown) [Compound 16a, 3-Bromo-4-(4-methoxyphenyl)-1-(3,4,5-trimethoxyphenyl)azetidin-2-one]: the half-life at 0.03 mg/mL in data set [1] (buffer pH 4, 37°C) is 1080 min; in data set [1] (buffer pH 7.4, 37°C), 1320 min; in data set [1] (buffer pH 9, 37°C), 1200 min. Besides, the IC50 in the data set with MCF-7 cells (Homo sapiens, MCF7, 72 h, MCF-7, 72 h, read-out: IC50 (MCF-7, 72 h)) turned out to be 579 ± 30 nM. Also, the “fold decrease in activity vs corresponding 3-chloro compound 10e” value in the data set with MCF-7 cells (MCF-7 IC50 ratio) is 17 fold. Further, the “SW480 inhibition of cell viability” value in the data set on SW480 cells worked out at 52%.
As to `CC(=O)O[C@H]1C(=O)[C@@]2(C)[C@H]([C@H](OC(=O)c3ccccc3)[C@]3(O)C[C@H](OC(=O)[C@H](O)[C@@H](NC(=O)c4ccccc4)c4ccccc4)C(C)=C1C3(C)C)[C@]1(OC(C)=O)CO[C@@H]1C[C@@H]2O` [paclitaxel], in data set [2], the “effect on microtubule network” value was “hyper-polymerisation of tubulin”.
